# In ChEMBL document CHEMBL5727136, “Inhibitors of RPN11” (2018):
# Legend:
# [1] = (§1) Biochemical Assay: In brief, this Rpn11 bioassay employs a fluorescent polarization readout based on the ability of the 26S proteasome to cleave the protein substrate including four tandem ubiquitin proteins fused to a peptide having a unique cysteine labeled with a fluorophore. Cleavage of this substrate by Rpn11 at the junction between the fourth ubiquitin and the peptide, releases the low molecular weight fluorescent peptide. Accordingly, inhibition of fluorescence correlates with inhibition of Rpn11. Inhibition is reported as the half maximal inhibitory concentration (IC50) for the candidate compound.The catalytic JAB1/MPN/Mov34 metalloenzyme (JAMM) motif of Rpn11 is found in 7 different human proteins including the Csn5 subunit of the COP9 signalosome, AMSH, AMSH-LP, the BRCC36 subunit of BRISC, MPND, and MYSM1. All of these enzymes cleave the isopeptide linkage that joins ubiquitin (or the ubiquitin-like protein Nedd8 in the case of Csn5) to a second molecule of ubiquitin or to a substrate. The conserved JAMM domain has the consensus sequence EXnHS/THX7SXXD, in which the histidine (His) and aspartic acid (Asp) residues bind the Zn2+ ion and the fourth coordination site is occupied by a water molecule that is engaged in hydrogen bonding with a conserved glutamic acid (Glu). The Zn2+ acts as a Lewis acid and increases the nucleophilic character of the bound water enough to allow hydrolytic cleavage of the isopeptide bond.
# [2] = as §1; remark: listed apart in the source
# [3] = as §1; remark: listed apart in the source
IC50 [1],IC50 [2],IC50 [3],SMILES
2.9 µM,,,O=C(NCCc1ccco1)c1ccnc2c(S)cccc12
3.52 µM,,,O=C(NCc1cccnc1)c1cnc2c(S)cccc2c1
1.3 µM,0.8 µM,16 µM,O=C(NCc1cccs1)c1cnc2c(S)cccc2c1
,0.8 µM,,O=C(NCc1ccc(N2CCOCC2)cc1)c1cnc2c(S)cccc2c1
1.2 µM,1 µM,,NC(=O)c1cnc2c(S)cccc2c1
4.8 µM,,68 µM,CNC(=O)c1cnc2c(S)cccc2c1
7.8 µM,,,O=C(NCc1nccs1)c1cnc2c(S)cccc2c1
1.7 µM,,6.9 µM,O=C(NCCc1ccco1)c1cnc2c(S)cccc2c1
16.7 µM,,,O=C(NCc1ccccn1)c1cnc2c(S)cccc2c1
0.9 µM,0.9 µM,,O=C(NCc1ccco1)c1cnc2c(S)cccc2c1
25.4 µM,6.4 µM,,O=C(NCCN1CCOCC1)c1cnc2c(S)cccc2c1
1.3 µM,0.3 µM,4 µM,O=C(NCCc1cccs1)c1cnc2c(S)cccc2c1
6.8 µM,4.6 µM,41.3 µM,O=C(NCC1CCCO1)c1cnc2c(S)cccc2c1 (stereo unspecified)
3.3 µM,,,O=C(Nc1nccs1)c1cnc2c(S)cccc2c1
,,30 µM,O=C(NCCc1nccs1)c1cnc2c(S)cccc2c1
0.6 µM,,0.5 µM,COc1ccc(CNC(=O)c2cnc3c(S)cccc3c2)cc1

SMILES,IC50 [1],IC50 [2],IC50 [3]
O=C(NCc1ccc2c(c1)OCO2)c1cnc2c(S)cccc2c1,< 0.2 µM,0.9 µM,7 µM
O=C(NCc1ccc(F)cc1)c1cnc2c(S)cccc2c1,0.85 µM,,18 µM
O=C(NCc1ccccc1)c1cnc2c(S)cccc2c1,15 µM,1.1 µM,11 µM
